From patent publication US20170131285A1, “METHODS AND COMPOSITIONS FOR DIAGNOSING, MONITORING AND TREATING CANCER” (INSERM (Institut National de la Sante et de la Recherche …, priority 2014, published 2017)
Where no end group is shown, it is not given here.

Columns and labels:
[1] = Toxicity observed in treated animals; type: in vivo; conditions: applicant's studies and bio-distribution studies
B16F10 tumors = assay: B16F10 melanoma tumor model in C57/BL6 mice; type: in vivo, mouse
Experimental: FIG. 5: A8 anti-tumor effect in mice is associated to MDSC and an immune anti-tumor response. (A) Mice were sc injected with B16F10 cells (5×10^4). On day 4, when tumor size was about 0.9 mm^3, animals were treated every two days until the end of the experiment with A0 or A8 (3 mg/kg dissolved in PBS, i.p injection). On day 5, half the animals were treated with cisplatin as a single dose (CDDP, i.p injection, 5 mg/kg). At day 18, the percentage of Gr1^+ CD11b^+ cells in the spleen collected from the different groups of mice was analyzed by flow cytometry (6 animals per group). As a MDCS negative control (Ctl) we used animals with no tumor cells injected. Right panels, a representative immunoblot of pSTAT3 in the MDSC (Gr1^+ CD11b^+ cells) isolated from the spleen of control animals (A0/PBS) or A8 and CDDP-treated animals (A8/CDDP). 14-3-3 is used as a loading control. (B) Analysis of tumor growth in the animals described above. Tumor size was measured every two days (6 animals per group). The white symbols represent the tumors from animals treated with cisplatin. (C) HSP70-exosomes isolated from B16F10 cells treated or not with cisplatin (CDDP, 25 μM) were determined by flow cytometry. Data represent the percentage of MFI+/−SD (n=3); *, p<0.05. (D) Association curves of HSP70-exosomes present in tumor-bearing mice sera treated or not with cisplatin (5 mg/kg). For the biolayer interferometry, biotinylated A8 was immobilized on streptavidin sensor tips. Curves represent mean values of triplicate measurements for each concentration (for each curve, the blood of 5 mice per group was pooled).
Exponentially growing B16F10 were harvested and resuspended in an RPMI medium without FBS. In vivo studies were performed in wild-type C57/BL6 mice (Charles River). B16F10 cells (5·10^4) were injected s.c. into the right flank Tumor volumes were evaluated every 2 days. Mice were treated with a control peptide aptamer A0 (3 mg/kg) or the HSP70 aptamer A8 (3 mg/kg) and half mice were treated with cisplatin (CDDP, […]). The animals were treated according to the guidelines of the Ministère de la Recherche et de la Technologie, France. All experiments were approved by the Comité d'Ethique de l'Université de Bourgogne.
MDSC cell isolation and analysis: Single-cell suspensions were prepared from spleens, and red cells were removed using ammonium chloride lysis buffer. Gr-1+ cells were isolated from spleens of different group of tumor-bearing mice or naive mice by labeling the cells with PE Cy7 Ab to Gr-1, then using magnetic PE Cy7 beads and LS MACS columns (Miltenyi Biotec). For extracellular staining of immune markers, single-cell suspensions were prepared. We incubated 1·10^6 freshly prepared cells with fluorochrome-coupled CD11b antibody (eBioscience). All events were acquired by a BD Bioscience LSR-II device and analyzed with FlowJo (Tree Star).
Animals were killed 18 days after cell injection. The site of tumor cell injection was resected and snap-frozen in liquid nitrogen. An immunohistochemical study of tumor-infiltrating inflammatory cells was performed on acetone-fixed 5 μm cryostat sections.
Next, we tested whether A8 was also able to block the immunosuppressive effect of MDSC in an in vivo cancer model. We performed subcutaneous injection at day 0 of B16F10 cells or media as a control in C57/BL6 mice. When tumor size reached about 0.9 mm^3 ([…]), mice were treated i.p. with a control peptide aptamer (A0) or A8 every two days until the end of the experiment. When indicated, half of the animals received cisplatin (CDDP, […], i.p.) as a single dose. Tumor growth was measured every two days. After 18 days, we analyzed the percentage of MDSC present in mice spleen (6 animals per group) by FACS using the specific markers Gr1^+ and CD11b^+ (FIG. 5A). […]

primary MDSC = assay: Primary MDSC proliferation (Cellometer-mini); type: cell-based, mouse; conditions: exosomes from B16F10, A8 16 μM, 24 hours
Experimental: FIG. 9: TDE and A8 effects on MSC2 and MDSC proliferation. A) Dynamic monitoring of in vitro MSC2 cell proliferation using the RTCA-DP system (Real-Time Cell Analyzer). MSC2 were incubated or not for 11 h with exosomes (from B16F10) in the absence or presence of A8 (16 μM and 32 μM). Cell index values were measured every 30 seconds (n=3). B) MSC2 were incubated or not for 24 h with exosomes (from B16F10) in the absence or presence of A8 (16 μM). Then, cells were labelled with BrdU and incorporation was determined by flow cytometry (n=3). C) MDSC were treated with exosomes (from B16F10) in the absence or presence of A8 ([…]) for 24 hours and then analyzed for proliferation by Cellometer-mini. *p<0.05.
MSC2 cells proliferation were analyzed by to different techniques. First, MSC2 (1·10^4) were seeded onto 16-well plates with medium containing 10% FBS and incubated for 34 hours. […] Into each well of the micro-electronic sensor transendothelial electric resistance (TER) was measured by xCELLigence real time cell analyzer DP system (Roche). TER was measured every 30 s and then normalized to the initial value. […] MDSC proliferation was analyzed by cell counting. MDSC cells (1·10^6) from spleen of naive mice (see MDSC isolation section) were treated or not with exosomes (from B16F10) in the absence or presence of A8 (16 μM) for 24 hours and then analyzed for viability by Cellometer-mini (Ozyme).

SPWPRPTY [Aptamer A8, SPWPRPTY]
toxicity in the animals, notably cardiac or hepatic [1]: neither our studies nor those done for the bio-distribution of A8 indicate any evident toxicity
intra-tumor infiltration of immune cells (CD3+, CD11c+, CD11b+, F4/80+) (B16F10 tumors; B16F10 model): intra-tumor infiltration of immune cells
anti-cancer properties of cisplatin (B16F10 tumors; B16F10 model, A8 added to cisplatin): strong increase
percentage of MDSC (Gr1+ CD11b+) in spleen (B16F10 tumors; B16F10 tumor-bearing C57/BL6 mice, day 18, A0 or A8 3 mg/kg i.p. every two days, cisplatin single i.p. dose, 6 animals per group): 6+/−0.7%
activity of spleen MDSC measured by phosphorylated STAT3 (B16F10 tumors; after cisplatin treatment, immunoblot of Gr1+ CD11b+ cells): affected their activity
tumor growth / tumor progression (B16F10 tumors; tumor-bearing mice): inhibits tumor progression
TDE-induced proliferation of primary MDSC (primary MDSC): blocked
